Reference: PubChem BioAssay AID330 (DTP/NCI, 2004)
Where “and” joins values, the source holds several entries; their conditions need not be identical. Equal values may be shown once. Toxic doses and inconclusive results are not listed.

Test system: P388 leukemia ip, CD2F1 mice, survival T/C
Experiment: NCI In Vivo Anticancer Drug Screen. Data for tumor model P388 Leukemia (intraperitoneal) in CD2F1 (CDF1) mice
Conditions: endpoint: median survival time, higher = longer survival
How it was run: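 Mice carrying the transplanted tumor received test compound or vehicle. Survival was recorded in each group, and the value is the treated-group measurement divided by that of the vehicle-treated control group.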

[1] = dose: 50.0 mg/kg/injection, schedule: Q01DX005 (ip), vehicle: saline with Tween-80
[2] = dose: 100.0 mg/kg/injection, schedule: Q01DX005 (ip), vehicle: saline with Tween-80
[3] = dose: 200.0 mg/kg/injection, schedule: Q01DX005 (ip), vehicle: saline with Tween-80
[4] = dose: 25.0 mg/kg/injection, schedule: Q01DX009 (ip), vehicle: Klucel (hydroxypropylcellulose) (HPC)
[5] = dose: 50.0 mg/kg/injection, schedule: Q01DX009 (ip), vehicle: Klucel (hydroxypropylcellulose) (HPC)

## CC1(C)C=Cc2c(ccc(C(=O)Cc3ccccc3)c2O)O1
[1]
  T/C: 99 % of control
[2]
  T/C: 96 % of control
[3]
  T/C: 93 % of control

## CC[As](CC)SC1OC(C2COC(C)(C)O2)C2OC(C)(C)OC12 (stereo not given)
dose: 12.5 mg/kg/injection, schedule: Q01DX009 (ip), vehicle: distilled water + Tween-80
  T/C: 120 % of control
dose: 25.0 mg/kg/injection, schedule: Q01DX009 (ip), vehicle: distilled water + Tween-80
  T/C: 123 % of control
dose: 50.0 mg/kg/injection, schedule: Q01DX009 (ip), vehicle: distilled water + Tween-80
  T/C: 120 % of control

## O=C1c2cc([N+](=O)[O-])cc3cc([N+](=O)[O-])cc(c23)C(=O)N1CCCNCCNCCCN1C(=O)c2cc([N+](=O)[O-])cc3cc([N+](=O)[O-])cc(c23)C1=O
[1]
  T/C: 100 % of control
[2]
  T/C: 100 % of control
[3]
  T/C: 100 % of control

## COC(=O)c1ccc(N=NN(C)CN=[N+]=[N-])cc1
dose: 12.5 mg/kg/injection, schedule: Q01DX005 (ip), vehicle: Klucel (hydroxypropylcellulose) (HPC)
  T/C: 106 % of control
dose: 25.0 mg/kg/injection, schedule: Q01DX005 (ip), vehicle: Klucel (hydroxypropylcellulose) (HPC)
  T/C: 124 % of control
dose: 100.0 mg/kg/injection, schedule: Q01DX005 (ip), vehicle: Klucel (hydroxypropylcellulose) (HPC)
  T/C: 160 % of control and 172 % of control

## COc1ccc(N2CC[N+](c3ccc(N(C)C)cc3)=C2C2=[N+](c3ccc(N(C)C)cc3)CCN2c2ccc(OC)cc2)cc1
dose: 12.5 mg/kg/injection, schedule: Q01DX009 (ip), vehicle: Klucel (hydroxypropylcellulose) (HPC)
  T/C: 91 % of control
[4]
  T/C: 91 % of control
[5]
  T/C: 91 % of control

## C/C=C1\CN2C3CC45c6cc(OC)c(OC)cc6N(C)C4(O3)C2CC1C5(COC(=O)c1cc(OC)c(OC)c(OC)c1)C(=O)OC (stereo not given)
dose: 11.5 mg/kg/injection, schedule: Q01DX005 (ip), vehicle: acid diluted with saline
  T/C: 98 % of control
dose: 23.0 mg/kg/injection, schedule: Q01DX005 (ip), vehicle: acid diluted with saline
  T/C: 100 % of control
dose: 46.0 mg/kg/injection, schedule: Q01DX005 (ip), vehicle: acid diluted with saline
  T/C: 110 % of control
dose: 92.0 mg/kg/injection, schedule: Q01DX005 (ip), vehicle: acid diluted with saline
  T/C: 100 % of control

## COc1ccccc1/C=C/C1=C(C)CCC(c2ccccc2OC)C1C (stereo not given)
[1]
  T/C: 90 % of control
[2]
  T/C: 89 % of control
[3]
  T/C: 89 % of control

## CN(C)CC#CCCCS(=O)(=O)c1ccccc1
dose: 60.0 mg/kg/injection, schedule: Q01DX005 (ip), vehicle: saline
  T/C: 97 % of control
dose: 120.0 mg/kg/injection, schedule: Q01DX005 (ip), vehicle: saline
  T/C: 99 % of control

## Nc1cccc[n+]1CCCCCC[n+]1ccccc1N
dose: 3.13 mg/kg/injection, schedule: Q01DX009 (ip), vehicle: saline
  T/C: 102 % of control
dose: 6.25 mg/kg/injection, schedule: Q01DX009 (ip), vehicle: saline
  T/C: 103 % of control

## O=c1ccc2ccc3occc(=O)c3c2o1
[1]
  T/C: 106 % of control
[2]
  T/C: 108 % of control
[3]
  T/C: 98 % of control

## CCC(=O)c1cc2ccccc2c2ccccc12
dose: 12.5 mg/kg/injection, schedule: Q01DX005 (ip), vehicle: saline
  T/C: 96 % of control
dose: 25.0 mg/kg/injection, schedule: Q01DX005 (ip), vehicle: saline
  T/C: 100 % of control
[1]
  T/C: 103 % of control
dose: 50.0 mg/kg/injection, schedule: Q01DX005 (ip), vehicle: saline
  T/C: 100 % of control

## CN1C(=O)Cc2ccccc21
[4]
  T/C: 99 % of control
[5]
  T/C: 101 % of control
dose: 100.0 mg/kg/injection, schedule: Q01DX009 (ip), vehicle: Klucel (hydroxypropylcellulose) (HPC)
  T/C: 105 % of control
dose: 200.0 mg/kg/injection, schedule: Q01DX009 (ip), vehicle: Klucel (hydroxypropylcellulose) (HPC)
  T/C: 99 % of control

## Oc1cc2c(cc1C(Nc1ncccn1)c1ccc3c(c1)OCO3)OCO2 (stereo not given)
dose: 60.0 mg/kg/injection, schedule: Q01DX005 (ip), vehicle: saline with Tween-80
  T/C: 102 % of control
dose: 120.0 mg/kg/injection, schedule: Q01DX005 (ip), vehicle: saline with Tween-80
  T/C: 100 % of control
dose: 240.0 mg/kg/injection, schedule: Q01DX005 (ip), vehicle: saline with Tween-80
  T/C: 95 % of control
